In patent US5688807A, “Method for treating 5HT2B receptor related conditions” (Eli Lilly and Company, priority 1995, dated 1997):
Where a name gives a salt, the structure may show the parent alone. Read-outs that look alike come from different tables or passages of the source.

Key:
[1] = target: 5-HT2B receptor (rat stomach fundus) (Rattus norvegicus, UniProt P30994);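 also: isometric contraction of isolated male Wistar rat stomach fundus strips, serotonin concentration-response curves after antagonist incubation, KB from dose ratio of agonist potency versus control curve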
[2] = target: T1, 5-HT2A receptor (rat jugular vein) (Rattus norvegicus, UniProt P14842); experiment: Antagonism of serotonin response in rat jugular vein (apparent antagonist dissociation constant); conditions: vs serotonin, ± standard error, read-out: 5-HT2A (Jugular) -log KB (converted)
T1 construct: rat jugular vein which is mediated by 5-HT2A receptors; from tissue; host or cells: rat jugular vein
Procedure: Apparent antagonist dissociation constants (KB) were determined for each concentration of antagonist according to the following equation: […]
where [B] is the concentration of the antagonist and dose ratio is the ED50 of the agonist in the presence of the antagonist divided by the control ED50. Generally, parallel shifts in the concentration-response curves occurred in the presence of antagonists. The results were expressed as the negative logarithm of the KB (i.e., -log KB). Calculations were completed using known methods.
The values in Table II are expressed as -log KB ± standard error (number of data points). The 5-HT2B value represents the negative log of the concentration of an antagonist that will produce a two fold dextral shift in the concentration response curve to serotonin in the rat stomach fundus which is mediated by 5-HT2B receptors. Likewise, the 5-HT2A value represents the negative log of the concentration of an antagonist that will produce a two fold dextral shift in the concentration response curve to serotonin in the rat jugular vein which is mediated by 5-HT2A receptors. The blank values in Table II indicate that the compound was not tested in the indicated assay.

distal colon = experiment: Functional in vitro assay: antagonism of serotonin contraction of rat distal colon longitudinal muscle; conditions: vs serotonin
Excerpt: Functional In vitro Assay:
Sprague-Dawley rats (200-250g; Laboratory Supply, Indianapolis, Ind.) were sacrificed by cervical dislocation and 8 cm segment of distal colon was removed and washed in ice cold modified Kreb's solution of the following composition (millimolar): Nacl, 118.2; Kcl, 4.6; Cacl2. H2 O, 1.6; KH2 PO4, 1.2; MgSO4, 1.2; dextrose, 10.0; and NaHCO3, 24.8. The colon was mounted on a glass rod and the longitudinal muscle layer with attached myenteric plexi was removed and mounted in organ baths, containing above described Kreb's solution maintained at 37° C. and equilibrated with 95% O2 and 5% CO2. Tissues were placed under 2 g tension and allowed to stabilize for 1 hour. Isometric contractions were recorded as changes in grams of force using grass FT03 transducers and MI^2 - computerized dynograph system. Cumulative concentration-response curves for serotonin were obtained by a stepwise increase in concentration after washing out the preceding concentration for 10-15 minutes. Each agonist concentration remained in contact with the tissue for 5 minutes. Maximum response to each concentration was determined and digitized. EC50 values were taken as the concentration of agonist that produced half maximal contraction. After control responses were obtained, tissues were incubated with an appropriate concentration of antagonist for 15 minutes. Response to serotonin were then repeated in the presence of an antagonist. Concentration-response utilized only one concentration of antagonist per tissue. Apparent antagonist dissociation constants (KB) were determined for each concentration of antagonist according to the following equation:
KB =[B]/(dose ratio-1), where [B] is the concentration of the antagonist and dose ratio is the ED50 of the agonist in the presence of antagonist divided by the control ED50. The results were expressed as the negative logarithm of the KB (i.e., -log KB) (Br. J. Pharmacol. Methods 4:4165, (1980).
The functional in vitro method described supra. was used to test compounds of this invention. Values are expressed as pKi and pA2 (-log KB). The following table illustrates the results obtained when the compounds were tested using the Radioligand assay supra. (pKi) and the functional in vitro method described supra. (pA2)

5HT2C = target: T2, 5HT2C (Homo sapiens, UniProt P28335); experiment: Human cell assay, 5HT2C cells; type: binding; conditions: Cell assays use Human Cells
T2 construct: expressed in transfected cells
T2 sequence (P28335 33-458): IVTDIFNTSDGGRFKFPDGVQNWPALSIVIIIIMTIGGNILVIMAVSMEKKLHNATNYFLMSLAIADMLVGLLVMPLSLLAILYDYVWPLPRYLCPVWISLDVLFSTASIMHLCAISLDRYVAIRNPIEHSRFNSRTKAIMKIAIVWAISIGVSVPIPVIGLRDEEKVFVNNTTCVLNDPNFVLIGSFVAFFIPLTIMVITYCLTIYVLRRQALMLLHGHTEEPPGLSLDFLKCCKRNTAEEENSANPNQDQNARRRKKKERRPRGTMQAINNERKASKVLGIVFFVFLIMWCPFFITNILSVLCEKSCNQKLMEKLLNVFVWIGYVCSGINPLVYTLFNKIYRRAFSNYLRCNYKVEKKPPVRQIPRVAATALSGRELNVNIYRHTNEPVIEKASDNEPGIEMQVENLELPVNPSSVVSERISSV
Procedure: Compounds of this invention were tested using substantially the procedure describe in the Radioligand assay supra. and are summarized in Table I infra. The values in Table I are expressed as Ki values calculated as described supra. The blank values in Table I indicate that the compound was not tested in the corresponding assay.

Human 5-HT2A = Human 5-HT2A (Homo sapiens, UniProt P28223); experiment: [125I]DOI radioligand binding, human 5-HT2A
Human 5-HT2B = target: T3, Human 5-HT2B (Homo sapiens, UniProt P41595); experiment: [3H]Serotonin radioligand binding, human 5-HT2B; conditions: Cell assays use Human Cells; read-out: Ki, 5HT2B Cells;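 also: competition of tritiated serotonin binding to cell membranes, bound radioactivity on filters counted by liquid scintillation, IC50 from logistic fits converted to Ki with the Cheng-Prusoff equation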
T3 construct: expressed in transfected cells

colon = experiment: In vivo inhibition of serotonin-induced colonic motility in anesthetized rats; conditions: Rattus norvegicus, iv; anesthetized Sprague-Dawley rats
Procedure: Sprague-Dawley Rats (250-300 g) were fasted overnight. The rats were anesthetized with urethane ([…]) delivered intraperitoneally. The abdominal cavity was opened and strain guage transducers were sewn on the antimesenteric border of the colon. The transducers were oriented to record circular muscle contractions. The animal body temperature was maintained by a heating pad. An intravenous catheter was inserted into the jugular vein for drug administration. The carotid blood pressure was also monitored. Output of the strain guage transducers was graphed on a Beckman Dynograph. Baseline motility was monitored for 30 minutes. At the end of the 30 minute period, a vehicle control dose was administered and motility was recorded for an additional 15 minutes. A serotonin dose response was developed. Successively higher doses of serotonin were administered at 15 minute intervals. An ED50 dose was calculated, which was the dose producing half maximal contraction. In antagonist experiments, historical ED50 dose was administered to validate the experimental set up. Next, a dose of antagonist was given. The motility was monitored for 15 minutes. […] Motility was evaluated by measuring the number of contractions and multiplying them by the amplitude of contractions over a set time period to provide a Motility Index. The percent inhibition was calculated from the vehicle (no antagonist) treated group. […]

rat 5-HT2B receptor = rat 5-HT2B receptor (Rattus norvegicus, UniProt P30994); experiment: biochemical; type: binding; conditions: Radioligand assay, Table III;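 also: displacement of [3H]5-HT from membranes of suspension cells carrying cloned rat 5-HT2B receptor, incubated 15 min at 37 °C or 2 h at 0 °C, filter-bound radioactivity counted by scintillation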
[3] = rat stomach fundus, vs serotonin, ± standard error, read-out: 5-HT2B (Fundus) -log KB (converted)

5-HT2B receptor (rat stomach fundus), sequence (P30994 whole entry): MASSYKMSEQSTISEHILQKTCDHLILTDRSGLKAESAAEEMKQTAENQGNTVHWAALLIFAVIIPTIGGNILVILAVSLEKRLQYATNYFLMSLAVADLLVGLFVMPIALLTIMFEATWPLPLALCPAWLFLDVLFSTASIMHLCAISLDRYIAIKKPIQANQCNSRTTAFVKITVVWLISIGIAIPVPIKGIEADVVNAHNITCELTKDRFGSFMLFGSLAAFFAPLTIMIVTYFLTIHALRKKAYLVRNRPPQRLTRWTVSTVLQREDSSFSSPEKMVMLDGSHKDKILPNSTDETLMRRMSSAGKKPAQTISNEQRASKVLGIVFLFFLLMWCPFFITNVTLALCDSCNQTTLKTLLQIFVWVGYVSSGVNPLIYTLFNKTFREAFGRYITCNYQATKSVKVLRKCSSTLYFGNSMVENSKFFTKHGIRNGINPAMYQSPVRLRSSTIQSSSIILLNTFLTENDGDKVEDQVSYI
T1 sequence (P14842 whole entry): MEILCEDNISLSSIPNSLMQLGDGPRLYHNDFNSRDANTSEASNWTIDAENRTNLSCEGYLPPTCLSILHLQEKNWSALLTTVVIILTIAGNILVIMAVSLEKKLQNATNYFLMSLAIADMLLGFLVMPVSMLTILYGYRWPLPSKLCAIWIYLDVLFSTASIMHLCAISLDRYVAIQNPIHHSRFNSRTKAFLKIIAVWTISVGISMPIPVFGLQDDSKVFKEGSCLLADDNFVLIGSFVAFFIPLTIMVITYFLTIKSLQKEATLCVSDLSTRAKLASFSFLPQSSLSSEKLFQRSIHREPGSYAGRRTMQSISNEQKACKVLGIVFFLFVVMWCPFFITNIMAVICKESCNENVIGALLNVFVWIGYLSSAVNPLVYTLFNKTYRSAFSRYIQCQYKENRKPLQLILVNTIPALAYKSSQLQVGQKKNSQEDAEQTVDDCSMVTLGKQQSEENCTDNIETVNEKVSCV
T3 sequence (P41595 whole entry): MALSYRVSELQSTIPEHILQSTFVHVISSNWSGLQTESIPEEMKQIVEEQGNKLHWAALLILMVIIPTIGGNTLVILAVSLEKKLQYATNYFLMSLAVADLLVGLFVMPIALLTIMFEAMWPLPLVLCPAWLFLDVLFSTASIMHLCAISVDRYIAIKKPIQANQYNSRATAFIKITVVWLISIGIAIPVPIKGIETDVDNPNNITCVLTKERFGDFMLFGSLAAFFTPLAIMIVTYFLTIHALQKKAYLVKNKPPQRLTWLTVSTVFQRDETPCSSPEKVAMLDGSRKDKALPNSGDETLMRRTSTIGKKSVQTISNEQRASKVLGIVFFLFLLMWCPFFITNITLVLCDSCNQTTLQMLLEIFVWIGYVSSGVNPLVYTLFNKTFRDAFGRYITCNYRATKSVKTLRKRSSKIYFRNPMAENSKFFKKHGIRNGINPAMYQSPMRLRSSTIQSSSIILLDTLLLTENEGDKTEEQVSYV
Human 5-HT2A, sequence (P28223 whole entry): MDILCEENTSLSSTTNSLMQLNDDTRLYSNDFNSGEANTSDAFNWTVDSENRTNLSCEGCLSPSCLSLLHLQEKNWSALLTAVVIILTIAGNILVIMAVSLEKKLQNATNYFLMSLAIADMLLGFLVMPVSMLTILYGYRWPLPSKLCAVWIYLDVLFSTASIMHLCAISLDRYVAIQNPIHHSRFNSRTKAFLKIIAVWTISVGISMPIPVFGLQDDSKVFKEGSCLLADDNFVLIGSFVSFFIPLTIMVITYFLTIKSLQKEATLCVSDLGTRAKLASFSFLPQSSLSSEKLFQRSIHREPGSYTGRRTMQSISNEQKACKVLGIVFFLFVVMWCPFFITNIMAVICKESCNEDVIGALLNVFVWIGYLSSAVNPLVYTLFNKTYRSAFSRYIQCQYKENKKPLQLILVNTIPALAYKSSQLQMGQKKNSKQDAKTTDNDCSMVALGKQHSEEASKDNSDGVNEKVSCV
rat 5-HT2B receptor, sequence (P30994 whole entry): as the sequence (P30994 whole entry) above

| Compound | Kb [2] | pA2 (-log KB) (distal colon) | Kb [1, 3] | other results |
| --- | --- | --- | --- | --- |
| COc1ccc(CC2NCCc3c2[nH]c2ccc(C)cc32)c(Cl)c1OC (centres unmarked) [Example 36, 6-methyl-1-[(2-chloro-3,4-dimethoxyphenyl)-methyl]-1,2,3,4-tetrahydro-9H-pyrido[3,4-b]indole hydrochloride] | 7.24 nM | – | – | Kb ([1]; read-out: 5-HT2B (Fundus) -log KB (converted)): 0.158 nM |
| CCc1ccc2[nH]c3c(c2c1)CCNC3Cc1ccc(OC)c(OC)c1 (centres unmarked) [Example 17, 6-ethyl-1,2,3,4-tetrahydro-1-[(3,4-dimethoxyphenyl)methyl]-9H-pyrido[3,4b]indole] | 21.9 nM | 6.2 | 0.347 nM | – |
| COc1ccc(CC2NCCc3c2[nH]c2cc(C)c(C)cc32)cc1OC (centres unmarked) [Example 16, 6,7-dimethyl-1,2,3,4-tetrahydro-1-[(3,4-dimethoxyphenyl)methyl]-9H-pyrido[3,4b]indole] | 7.08 nM | – | – | Kb [1]: 0.195 nM |
| CCCOc1ccc(CC2NCCc3c2[nH]c2ccc(C)cc32)cc1OC (centres unmarked) [Example 31, 6-methyl-1-[(3-methoxy-4-propoxyphenyl)-methyl]-1,2,3,4-tetrahydro-9H-pyrido[3,4-b]indole] | 51.3 nM | – | 1.12 nM | – |
| COc1cc2c(cc1OC)CC1(CC2)N[C@@H]2CCCC[C@H]2c2c1[nH]c1ccc(C)cc21 (stereo partly drawn) [Example 107, Trans-spiro-6,6-[2-(3,4-dimethoxy)-1,2,3,4-tetrahydronaphthyl]-10-methyl-2,3,4,4a,5,6,7,11a-octahydro-1H-indolo[2,3-c]quinidine, hydrochloride] | – | – | – | Ki (5HT2C): 325 nM; Ki (Human 5-HT2A): 363 nM; Ki (Human 5-HT2B): 178 nM |
| Cc1cc(Br)c2[nH]c3c(c2c1)CCNC3 [Example 73, 6-methyl-8-bromo-1,2,3,4-tetrahydro-9H-pyrido[3,4b]-indole] | – | 8.9 | – | ED50 (colon): 3.2 mg/kg; pKi (rat 5-HT2B receptor): 7.85 |
| Cc1ccc2[nH]c3c(c2c1)CCNC3Cc1cccc2ccccc12 (racemic) [Example 51, (±) 6-methyl-1-(1-naphthalenylmethyl)-1,2,3,4-tetrahydro-9H-pyrido [3,4-b]indole hydrochloride] | 8.51 nM | – | 0.178 nM | – |
| COc1ccc(C(C)C2NCCc3c2[nH]c2cc(C)c(C)cc32)cc1OC (racemic) [Example 41, (±) 6,7-dimethyl-1-[(3,4-dimethoxyphenyl)-1-ethyl]-1,2,3,4-tetrahydro-9H-pyrido[3,4-b]indole (Z)-2-butenedioate] | 11.5 nM | 7.2 | 0.155 nM | Ki (rat 5-HT2B receptor; read-out: pKi (converted)): 6.46 nM |
| COc1ccc(CC2NCCc3c2[nH]c2ccc(C)cc32)cc1OC (centres unmarked) [Example 20, 6-methyl-1,2,3,4-tetrahydro-1-[(3,4-dimethoxyphenyl)methyl]-9H-pyrido[3,4b]indole hydrochloride] | 61.7 nM | 7.8 | – | – |
| Cc1ccc2[nH]c3c(c2c1)[C@@H]1CCCC[C@H]1NC3Cc1cccc2ccccc12 (stereo partly drawn) [Example 105, Trans-10-methyl-6-(1-naphthylmethyl)-2,3,4,4a,5,6,7,11c-octahydro-1H-indolo[2,3-c]quinoline, hydrochloride] | – | – | – | Ki (5HT2C): 195 nM; Ki (Human 5-HT2A): 86.5 nM; Ki (Human 5-HT2B): 22.1 nM |
| Cc1ccc2[nH]c3c(c2c1)[C@@H]1CCCC[C@H]1NC3 (relative stereo) [Example 95, Trans-10-methyl-2,3,4,4a,5,6,7,11c-octahydro-1H-indolo[2,3c]quinoline, hydrochloride] | – | – | – | Ki (5HT2C): 2640 nM; Ki (Human 5-HT2A): 3440 nM; Ki (Human 5-HT2B): 840 nM |
